Test results: patent US20110269812A1, “NOVEL BENZYLIDENE-INDOLINONE AND THEIR MEDICAL AND DIAGNOSTIC USES” (Agency for Science, Technology and Research, priority 2008, published 2011)
Read-outs that look alike come from different tables or passages of the source.

Legend:
[1] = tested on: CYP1A1; assay: 7-ethoxyresorufin O-deethylase (EROD) assay, CYP1A1 induction in Hepa1c1c7 cells; type: cell-based, murine; conditions: 48 h
Method: Hepa1c1c7 cells were plated at a density of 10000 cells per well in a 96-well plate and cultured for 24 h. A stock solution of test compound was prepared in DMSO and serially diluted with medium to give the desired concentration in the well. The final concentration of DMSO was 0.5% v/v. The cells were incubated with test compound for 48 h, after which the medium was removed, the well washed with 200 μl of 1×phosphate-buffered saline solution (PBS) and then incubated with 5 μM 7-ethoxyresorufin and 2 mM salicylamide in 200 μl of medium at 37° C., 40 min. Readings were taken at λexcitation of 530 nm and λemission of 590 nm on a fluorometer. Fluorescence (if any) of the test compound was determined at the same wavelengths to take into account its contribution to the observed readings. Readings of empty wells (no cells, “blank”) and wells with Hepa1c1c7 cells in medium containing 0.5% DMSO but without test compound (“control”) were also determined. TCDD, a strong inducer of CYP1A1 activity, as well as BNF and sulforaphane were used as controls.
CYP1A1 induction activity was given by the expression:
Degree of induction=FCells+test compound−FBlank/FControl−FBlank
The EROD assay was used for this purpose (Burke, M. D.; Mayer, R. T., Drug Metab Dispos 1974, 2, 583). EROD activity describes the rate at which CYP1A1 caused the O-deethylation of 7-ethoxyresorufin to resorufm. […] This ratio was determined for compounds at concentrations that were approximately 4 times their CD values. A fixed concentration was not used here because it would be difficult to select this concentration in view of the large variation in NQO1 induction activities. The quotient of NQO1 and CYP1A1 induction ratios (ratio determined at the same concentration) was also obtained for each compound. Values >1 would imply greater induction of NQO1 relative to CYP1A1.

[2] = tested on: Hs817T; assay: Cell Titer-Glo viability, Hs817T; type: cell-based, human; conditions: 5 μM
Method: The efficacy of compound 47 against HCC proliferation was tested on a wider panel of HCC cell lines: Hep3B ([…]), Hs817T (▪), PLC/PRF/5 (▴) and SK-Hep 1 (▾), as determined by Cell Titer-Glo assay.
Cells were plated at 5000-7000 cells/per well and incubated for 24 h before treatment. […] Cell Titer-Glo (Promega, Madison, Wis.) assay was performed according to manufacturer's instruction with luminescence detected on SpectraMax M5 (Molecular Devices, Sunnyvale, Calif.). Data was expressed as percentage of viability vs. vehicle-treated controls.
Accordingly, Compound 47 was screened against a larger panel of 4 additional HCC cell lines.

[3] = tested on: phospho-Erk, phospho-Akt, PCNA, cyclin D1, cleaved PARP, Bax, Bcl-xL; assay: Immunoblot of signalling, cell cycling and apoptosis markers in HuH7 or HepG2; type: cell-based, human; conditions: HuH7 or HepG2, 0, 1, 5 or 10 μM, 24 h
Method: HuH7 or HepG2 cells were treated with increasing concentration of Compound 47 (0, 1, 5 or 10 μM) for 24 h. Cell lysates were harvested and immunoblotted against cleaved PARP, phospho-Erk, phospho-Akt, PCNA, cyclin D1, Bax and Bcl-xL, with HSP60 as loading control.
Protein concentrations were assayed by BCA method (Pierce, Rockford, Ill.). Samples were resolved using 6-10% SDS-PAGE and transferred to nitrocellulose or PVDF membranes by tank transfer. Immunodetection was by chemiluminescence (SuperSignal, Pierce) using specific antibodies diluted in PBS with 0.05% (v/v) Tween 20 and 5% (w/v) powdered milk or BSA. Anti-phospho-IGF-1R, anti-phospho-EphA2, anti-phospho-Erk, anti-phospho-Akt, anti-Bax, anti-BCL-xL were from Cell Signaling Technology (Beverly, Mass.); anti-PCNA and anti-HSP60 from Santa Cruz Biotechnology (Santa Cruz, Calif.); anti-cyclin-D1 from BD Pharmingen (San Jose, Calif.). Secondary antibodies were anti-mouse and anti-rabbit HRP-conjugated antibodies (Pierce).
Next, the mechanism of Compound 47's anti-proliferative effects was investigated. […] However, there was little effect on the mitochondrial apoptotic players Bax and BCL-xL.

[4] = target: T1, EGFR (Homo sapiens, UniProt P00533); type: cell-based; conditions: 24 h, untreated 0.15
T1 construct: Cells treated similarly were immunoprecipitated with anti-EGFR, anti-EphA2 and anti-Tyro3; endogenous in cells; host or cells: HuH7
Method: (§1) Kinase phosphorylation changes were determined with human phospho-RTK array.
(§2) Cells harvesting, hybridization with RTK array and incubation with anti-phosphotyrosine were performed according to manufacturer's instruction. Imaging and quantification of the spots intensities was with Fujifilm LAS-3000 (Tokyo, Japan). Average signal of the duplicate spots for each RTK was determined.

[5] = target: T2, Her3 (Homo sapiens, UniProt P21860); assay: Human phospho-RTK array, HuH7: Her3; type: cell-based; conditions: 24 h, untreated 0.05
T2 construct: endogenous in cells; host or cells: HuH7
Method: as §1, §2

[6] = target: T1, EGFR; type: cell-based

T1 sequence (P00533 25-1210): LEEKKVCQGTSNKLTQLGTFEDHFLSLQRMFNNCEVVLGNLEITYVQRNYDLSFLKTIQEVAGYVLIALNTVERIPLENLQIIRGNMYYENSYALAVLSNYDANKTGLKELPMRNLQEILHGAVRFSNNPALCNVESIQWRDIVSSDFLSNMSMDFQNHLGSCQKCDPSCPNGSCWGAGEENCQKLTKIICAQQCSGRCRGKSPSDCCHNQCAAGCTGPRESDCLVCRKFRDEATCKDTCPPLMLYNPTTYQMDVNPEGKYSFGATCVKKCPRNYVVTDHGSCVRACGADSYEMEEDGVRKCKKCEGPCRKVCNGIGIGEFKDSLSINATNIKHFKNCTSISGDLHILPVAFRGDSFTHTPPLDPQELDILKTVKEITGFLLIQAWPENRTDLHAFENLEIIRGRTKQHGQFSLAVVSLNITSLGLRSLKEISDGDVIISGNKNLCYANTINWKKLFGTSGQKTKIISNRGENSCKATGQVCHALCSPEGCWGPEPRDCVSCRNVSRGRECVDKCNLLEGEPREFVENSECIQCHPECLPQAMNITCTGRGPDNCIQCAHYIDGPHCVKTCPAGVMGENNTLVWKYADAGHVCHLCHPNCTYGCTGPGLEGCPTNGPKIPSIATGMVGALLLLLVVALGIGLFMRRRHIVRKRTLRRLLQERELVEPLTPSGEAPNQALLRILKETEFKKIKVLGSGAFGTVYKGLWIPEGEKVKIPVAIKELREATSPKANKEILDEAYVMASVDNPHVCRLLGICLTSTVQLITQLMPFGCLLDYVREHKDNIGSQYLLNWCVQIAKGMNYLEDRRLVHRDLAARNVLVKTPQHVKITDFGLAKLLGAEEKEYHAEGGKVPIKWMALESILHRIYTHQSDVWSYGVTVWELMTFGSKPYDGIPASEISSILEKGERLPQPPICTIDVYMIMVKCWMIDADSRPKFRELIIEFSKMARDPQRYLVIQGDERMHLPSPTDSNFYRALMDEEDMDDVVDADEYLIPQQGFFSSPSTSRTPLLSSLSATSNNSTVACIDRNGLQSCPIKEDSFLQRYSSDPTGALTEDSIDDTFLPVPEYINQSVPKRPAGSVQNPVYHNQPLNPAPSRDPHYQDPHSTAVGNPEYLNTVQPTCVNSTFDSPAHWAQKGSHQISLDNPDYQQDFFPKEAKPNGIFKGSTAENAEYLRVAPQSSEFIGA
T2 sequence (P21860 20-1342): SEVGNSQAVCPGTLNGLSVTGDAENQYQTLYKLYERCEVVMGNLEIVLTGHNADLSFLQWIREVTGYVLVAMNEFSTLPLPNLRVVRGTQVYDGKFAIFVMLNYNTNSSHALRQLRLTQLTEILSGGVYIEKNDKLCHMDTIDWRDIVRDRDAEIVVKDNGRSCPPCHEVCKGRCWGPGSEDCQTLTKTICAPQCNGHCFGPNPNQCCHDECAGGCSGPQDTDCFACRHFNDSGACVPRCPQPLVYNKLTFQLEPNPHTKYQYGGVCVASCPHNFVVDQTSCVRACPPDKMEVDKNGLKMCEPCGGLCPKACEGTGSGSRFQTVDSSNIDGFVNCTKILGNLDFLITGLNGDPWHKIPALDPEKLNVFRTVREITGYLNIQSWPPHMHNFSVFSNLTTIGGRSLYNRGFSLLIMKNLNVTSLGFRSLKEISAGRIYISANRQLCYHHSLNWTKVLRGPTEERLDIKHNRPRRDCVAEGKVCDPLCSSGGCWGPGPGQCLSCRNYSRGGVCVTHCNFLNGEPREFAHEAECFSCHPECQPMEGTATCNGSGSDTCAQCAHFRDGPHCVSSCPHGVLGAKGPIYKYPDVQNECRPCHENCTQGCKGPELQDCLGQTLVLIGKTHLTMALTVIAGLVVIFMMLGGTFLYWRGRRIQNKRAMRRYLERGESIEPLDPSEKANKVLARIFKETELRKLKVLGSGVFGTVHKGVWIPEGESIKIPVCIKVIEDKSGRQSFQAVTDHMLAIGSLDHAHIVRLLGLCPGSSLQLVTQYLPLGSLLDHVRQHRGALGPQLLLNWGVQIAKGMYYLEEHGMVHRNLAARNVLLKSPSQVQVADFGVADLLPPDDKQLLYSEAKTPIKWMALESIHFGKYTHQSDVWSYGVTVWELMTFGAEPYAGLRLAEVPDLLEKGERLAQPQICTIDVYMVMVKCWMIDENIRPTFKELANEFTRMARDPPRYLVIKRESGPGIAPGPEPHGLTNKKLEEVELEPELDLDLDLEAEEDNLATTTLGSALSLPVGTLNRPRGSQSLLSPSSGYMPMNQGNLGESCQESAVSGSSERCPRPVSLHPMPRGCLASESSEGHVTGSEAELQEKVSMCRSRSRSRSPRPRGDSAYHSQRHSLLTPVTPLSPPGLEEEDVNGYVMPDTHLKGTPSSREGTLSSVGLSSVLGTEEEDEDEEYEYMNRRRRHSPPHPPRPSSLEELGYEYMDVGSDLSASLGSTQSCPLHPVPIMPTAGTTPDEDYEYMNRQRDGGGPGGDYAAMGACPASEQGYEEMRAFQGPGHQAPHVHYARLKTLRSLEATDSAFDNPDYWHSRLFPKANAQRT

Work on COc1cccc(/C=C2/C(=O)Nc3cc(OC)ccc32)c1 [Compound 42, (E)-6-Methoxy-3-(3-methoxybenzylidene)indolin-2-one] yielded a CYP1A1 induction ratio ([1]; 0.5 μM) of 1.13 ± 0.01 and a melting point of 161 to 163 °C.
Work on COc1ccc2c(c1)NC(=O)/C2=C/c1ccc(OC)c(O)c1 [Compound 45, (E)-3-(3-Hydroxy-4-methoxybenzylidene)-6-methoxyindolin-2-one] yielded a CYP1A1 induction ratio ([1]; 1 μM) of 1.05 ± 0.01 and a melting point of 184 to 186 °C.
Compound O=C1Nc2cc(F)ccc2/C1=C\c1cccc(C(F)(F)F)c1 [Compound 46, (E)-6-Fluoro-3-(3-(trifluoromethyl)benzylidene)indolin-2-one] has a CYP1A1 induction ratio ([1]; 0.05 μM) of 1.23 ± 0.08 and a melting point of 132 to 135 °C.
For O=C1Nc2cc(Cl)ccc2/C1=C\c1cccc(C(F)(F)F)c1 [Compound 47, (E)-6-Chloro-3-(3-(trifluoromethyl)benzylidene)indolin-2-one], the “viability Hs817T” value [2] was “undetectable viability”, the “Bax and BCL-xL (mitochondrial apoptotic players)” value [3] was “little effect” and the “Erk and Akt phosphorylation” value [3] was “dose-dependent inhibition”. The “cleaved PARP (apoptotic marker)” value [3] was “confirmed the participation of pro-apoptotic mechanism”, the “cyclin-D1 and PCNA expression (cell cycling markers)” value [3] was “corresponding reduction” and the “EGFR Phosphorylation” value ([4]; serum starved HuH7, 1 μM) was 0.19 Arbitrary units. For the same compound, the “EGFR Phosphorylation” value ([4]; serum starved HuH7, 5 μM) was 0.44 Arbitrary units, the “EGFR Phosphorylation” value ([4]; serum starved HuH7, 10 μM) was 0.53 Arbitrary units and the “Her3 Phosphorylation” value ([5]; serum starved HuH7, 1 μM) was 0.07 Arbitrary units. For the same compound, the “Her3 Phosphorylation” value ([5]; serum starved HuH7, 5 μM) was 0.04 Arbitrary units, the “Her3 Phosphorylation” value ([5]; serum starved HuH7, 10 μM) was 0.03 Arbitrary units and the “EGFR phosphorylation by immunoblot” value [6] was “unexpected increase”. It also gave a melting point of 204 to 207 °C.
Work on COc1ccc2c(c1)NC(=O)/C2=C/c1cccc(C(F)(F)F)c1 [Compound 48, (E)-6-Methoxy-3-(3-(trifluoromethyl)benzylidene)indolin-2-one] yielded a CYP1A1 induction ratio ([1]; 0.5 μM) of 1.36 ± 0.07 and a melting point of 157 to 160 °C.
